Measurements reported in ChEMBL document CHEMBL1201862, “PubChem BioAssay data set” (2004).
Active and inactive are the calls of the source.

Tests used:
[1] = Luminescence Cell-Based Dose Confirmation HTS to Identify Activators of 5'UTR Stem-Loop Driven Alpha-Synuclein mRNA Translation in H4 Neuroglioblastoma Cells. [Related pubchem assays: 1829 (Project Summary), 1814 (Primary HTS)]; format: functional
[2] = Luminescence Cell-Based Dose Response HTS to Identify Activators of Luciferase Translation or Activity in H4 […] Cells. [Related pubchem assays: 1829 (Project Summary), 1814 (Primary HTS)]; format: functional
H4 = assay: Luminescence Cell-Based Dose Response HTS to Identify Activators of 5'UTR Stem-Loop Driven Prion Protein mRNA Translation in H4 Neuroglioblastoma Cells. [Related pubchem assays: 1829 (Project Summary), 1814 (Primary HTS)]; format: functional; settings: Homo sapiens
[3] = Luminescence Cell-Based Dose Retest to Confirm Inhibitors of Cancer Stem Cells. [Related pubchem assays (depositor defined):AID2717, AID2721]; format: functional; settings: Homo sapiens
Protein RecA = target: T1, Protein RecA (Mycobacterium tuberculosis, UniProt P9WHJ3); assay: Fluorescence Cell-Free Homogeneous Dose Retest to Identify Inhibitors of RecA-Intein Splicing Activity. [Related pubchem assays (depositor defined):AID2097, AID2223, AID489010, AID492950]; format: functional
T1 sequence (P9WHJ3 whole entry): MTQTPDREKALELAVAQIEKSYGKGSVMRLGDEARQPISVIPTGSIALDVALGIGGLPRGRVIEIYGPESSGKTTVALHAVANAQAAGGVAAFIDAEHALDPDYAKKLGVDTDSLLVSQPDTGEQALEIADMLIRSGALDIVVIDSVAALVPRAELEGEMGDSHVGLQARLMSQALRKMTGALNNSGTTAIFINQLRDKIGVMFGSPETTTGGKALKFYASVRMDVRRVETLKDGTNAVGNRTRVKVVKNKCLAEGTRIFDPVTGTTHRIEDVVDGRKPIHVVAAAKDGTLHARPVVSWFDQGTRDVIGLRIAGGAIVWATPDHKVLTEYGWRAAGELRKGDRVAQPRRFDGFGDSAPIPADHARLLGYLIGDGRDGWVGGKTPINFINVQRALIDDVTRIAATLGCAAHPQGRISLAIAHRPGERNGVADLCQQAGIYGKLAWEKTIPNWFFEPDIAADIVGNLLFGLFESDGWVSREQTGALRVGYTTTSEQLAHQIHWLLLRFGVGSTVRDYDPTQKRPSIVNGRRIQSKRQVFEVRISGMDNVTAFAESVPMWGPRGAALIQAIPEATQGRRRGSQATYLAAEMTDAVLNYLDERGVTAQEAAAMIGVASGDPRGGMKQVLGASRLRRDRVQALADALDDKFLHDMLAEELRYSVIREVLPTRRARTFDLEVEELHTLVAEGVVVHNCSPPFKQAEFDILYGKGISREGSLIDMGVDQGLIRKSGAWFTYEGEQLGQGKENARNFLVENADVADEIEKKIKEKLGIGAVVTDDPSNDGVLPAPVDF

INS1 = assay: INS-1E survival protection against cytokine death – cell-based, luminescence, retest, dose response (AID 449756); format: functional; settings: Rattus norvegicus;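 further: cell death triggered by IL-1 beta plus TNF-alpha plus IFN-gamma mixture; protective hits raise ATP signal compared with cytokine alone wells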
[4] = A549 cell cytotoxicity, dose response, cytotoxicity control, plate reader, cherry-pick, antagonist series (AID 743412); format: functional, cell-based
[5] = toxicity toward HepG2 liver cells – cell-based, plate reader, cherry-pick, antagonist series, cytotoxicity control, dose response (AID 743416); format: functional
[6] = viability loss in HEK293 cells – cell-based, plate reader, cherry-picked samples, cytotoxicity control, dose response (AID 743446); format: functional
[7] = viability of uninfected HEp-2 cells – cell-based, HTS, cytotoxicity control for RSV inhibitor project, dose response (AID 2410); format: functional; settings: human respiratory syncytial virus
Genome polyprotein = Genome polyprotein (dengue virus type 2, UniProt P29990); assay: flavivirus cap methylation enzyme inhibition – biochemical, confirmation dose response, primary screen (AID 588689); format: functional
Caspase-6 = Caspase-6 (Homo sapiens, UniProt P55212); assay: inhibition of CASP6 peptide cleavage – biochemical, VEID-R110 fluorescence, cherry-pick, dose response (AID 720632)
[8] = viability of PTEN-deleted HCT116 cells – cell-based, HCT116 PTEN knockout, dose response (AID 1047); format: functional;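 further: HCT116 colon tumor cells with PTEN knocked out; cells exposed to compound for 60 hours before readout; potency for loss of cell viability measured by luminescence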
[9] = viability of HCT116 lacking mutant beta-catenin – cell-based, human colon tumor, dose response (AID 1045); format: functional;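 further: HCT116 colon tumor cells with beta catenin knocked out; cells exposed to compound for 60 hours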
[10] = target: T2, Heat shock factor protein 1 (Mus musculus, UniProt P38532); assay: enhancement of HSF1-driven luciferase signal – cell-based, NIH3T3, luminescence, dose retest, confirmation (AID 435004); format: functional;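 further: stress induced by proteasome inhibitor MG132 added 30 min after compound; luciferase reporter driven by HSF1 response element in NIH3T3 cells; actives raise luminescence as potentiators of the MG132 stress response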
T2 sequence (P38532 whole entry): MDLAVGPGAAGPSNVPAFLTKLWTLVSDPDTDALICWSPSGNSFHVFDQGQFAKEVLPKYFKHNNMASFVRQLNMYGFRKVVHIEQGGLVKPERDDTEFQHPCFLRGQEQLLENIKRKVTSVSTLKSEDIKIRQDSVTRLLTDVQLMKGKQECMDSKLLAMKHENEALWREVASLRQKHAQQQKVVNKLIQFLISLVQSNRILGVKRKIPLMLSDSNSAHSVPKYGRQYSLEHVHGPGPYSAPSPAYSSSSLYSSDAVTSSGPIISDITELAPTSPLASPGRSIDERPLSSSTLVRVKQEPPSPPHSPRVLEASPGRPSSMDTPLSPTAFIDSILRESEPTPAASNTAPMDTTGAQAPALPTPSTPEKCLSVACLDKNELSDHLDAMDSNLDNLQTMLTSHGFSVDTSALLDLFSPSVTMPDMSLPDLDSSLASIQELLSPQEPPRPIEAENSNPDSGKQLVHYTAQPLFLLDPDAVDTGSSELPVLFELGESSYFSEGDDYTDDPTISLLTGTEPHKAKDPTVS

Vero [11] = assay: cells; format: functional, cell-based; settings: Chlorocebus sabaeus
Vero [12] = assay: cells; format: functional; settings: Chlorocebus sabaeus
[13] = potency of ADAM10 substrate cleavage blockers – biochemical, QFRET, dose response (AID 743254);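 further: ADAM10 enzyme with the DM2 quenched FRET peptide as substrate; EDANS fluorescence gain as the protease cuts the substrate; inhibitor potency against ADAM10 proteolytic activity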
[14] = target: Disintegrin and metalloproteinase domain-containing protein 17 (Homo sapiens, UniProt P78536); assay: inhibition of ADAM17 substrate cleavage – biochemical, quenched FRET substrate, counter-screen for ADAM10 exosite inhibitor project, dose response (AID 743253)
[15] = blockers of bursicon-stimulated LGR2 cAMP reporter – cell-based, HEK293, CRE-luciferase reporter, cherry pick, set 2, dose response (AID 743343); format: functional;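 further: transfected cells were stimulated with diluted bursicon conditioned medium after compound addition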
[16] = blockade of melanocortin 4 receptor signaling – cell-based, plate reader, cherry pick, counter-screen for LGR2 antagonist project, dose response (AID 743444); format: functional;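 further: transfected HEK 293 cells stimulated with alpha-MSH peptide; potency of inhibitors of the alpha-MSH evoked signal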
Protein skinhead-1 = target: T3, Protein skinhead-1 (Caenorhabditis elegans, UniProt P34707); format: functional
T3 sequence (P34707 whole entry): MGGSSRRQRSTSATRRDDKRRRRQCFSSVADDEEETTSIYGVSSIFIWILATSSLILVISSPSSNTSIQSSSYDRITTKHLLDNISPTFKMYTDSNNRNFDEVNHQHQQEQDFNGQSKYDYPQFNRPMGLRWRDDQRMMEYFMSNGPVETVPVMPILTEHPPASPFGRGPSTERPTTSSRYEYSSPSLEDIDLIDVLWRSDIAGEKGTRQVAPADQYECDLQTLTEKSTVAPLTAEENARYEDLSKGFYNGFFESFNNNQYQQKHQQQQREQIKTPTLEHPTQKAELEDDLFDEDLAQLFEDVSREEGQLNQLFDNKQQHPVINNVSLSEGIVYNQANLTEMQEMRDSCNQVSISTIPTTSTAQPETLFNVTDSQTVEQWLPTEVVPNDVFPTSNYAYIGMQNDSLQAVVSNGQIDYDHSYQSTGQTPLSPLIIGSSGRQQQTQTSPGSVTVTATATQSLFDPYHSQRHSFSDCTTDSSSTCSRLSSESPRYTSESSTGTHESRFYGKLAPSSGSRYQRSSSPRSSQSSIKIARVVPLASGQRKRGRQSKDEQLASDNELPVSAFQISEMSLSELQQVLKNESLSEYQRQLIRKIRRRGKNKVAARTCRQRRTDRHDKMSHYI

[17] = target: T4, Oxysterols receptor LXR-beta (Homo sapiens, UniProt P55055); format: functional, cell-based;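 further: agonist activity at LXR measured by a cell-based luminescence readout across a dose range, run as a counterscreen for daf-12 agonists; HEK293 cells with Gal4-LXR fusion and GAL4-driven luciferase reporter; potency for activation of Gal4-LXR reporter so compounds are agonists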
T4 sequence (P55055 whole entry): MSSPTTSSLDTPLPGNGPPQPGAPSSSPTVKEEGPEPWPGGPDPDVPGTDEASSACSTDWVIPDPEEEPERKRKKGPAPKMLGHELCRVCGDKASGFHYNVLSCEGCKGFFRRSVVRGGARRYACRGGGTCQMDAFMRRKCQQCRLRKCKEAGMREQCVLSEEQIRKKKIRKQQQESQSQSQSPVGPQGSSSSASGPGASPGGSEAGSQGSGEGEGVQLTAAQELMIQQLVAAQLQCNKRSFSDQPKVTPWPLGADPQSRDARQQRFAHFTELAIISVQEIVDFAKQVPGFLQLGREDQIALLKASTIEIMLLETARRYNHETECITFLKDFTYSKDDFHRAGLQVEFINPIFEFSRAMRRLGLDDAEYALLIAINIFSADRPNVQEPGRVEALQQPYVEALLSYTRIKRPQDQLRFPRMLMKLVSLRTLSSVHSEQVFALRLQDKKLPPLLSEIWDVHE

fMet-Leu-Phe receptor = fMet-Leu-Phe receptor (Homo sapiens, UniProt P21462); assay: formyl peptide receptor binders – dose response (AID 519); format: functional
[18] = Trypanosoma cruzi growth suppression in host cells – NIH3T3 host cells, beta-gal luminescence, confirmation (AID 2044); format: functional, cell-based;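 further: intracellular parasites grown in NIH/3T3 mouse fibroblasts as host cells; luminescent beta-galactosidase reporter signal from transgenic T. cruzi replicating inside host cells; inhibitors lower the luminescence signal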
[19] = NIH3T3 cell viability loss – ATP luminescence, mouse fibroblasts, counter-screen, dose response (AID 2010); format: functional, cell-based;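 further: cells exposed to compound for about 90 hours before reading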

Sequence of Caspase-6 (P55212 24-179 limits assumed): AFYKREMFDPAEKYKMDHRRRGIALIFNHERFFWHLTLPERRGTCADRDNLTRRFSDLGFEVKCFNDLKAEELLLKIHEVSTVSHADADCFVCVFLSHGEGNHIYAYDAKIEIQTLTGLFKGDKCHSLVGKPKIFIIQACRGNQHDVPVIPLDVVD
Sequence of Caspase-6 (P55212 194-293 limits assumed): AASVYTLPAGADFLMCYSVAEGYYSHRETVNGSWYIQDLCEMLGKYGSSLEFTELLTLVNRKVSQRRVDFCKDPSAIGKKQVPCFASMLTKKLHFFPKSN
Sequence of Disintegrin and metalloproteinase domain-containing protein 17 (P78536 whole entry, the tested form may be a part): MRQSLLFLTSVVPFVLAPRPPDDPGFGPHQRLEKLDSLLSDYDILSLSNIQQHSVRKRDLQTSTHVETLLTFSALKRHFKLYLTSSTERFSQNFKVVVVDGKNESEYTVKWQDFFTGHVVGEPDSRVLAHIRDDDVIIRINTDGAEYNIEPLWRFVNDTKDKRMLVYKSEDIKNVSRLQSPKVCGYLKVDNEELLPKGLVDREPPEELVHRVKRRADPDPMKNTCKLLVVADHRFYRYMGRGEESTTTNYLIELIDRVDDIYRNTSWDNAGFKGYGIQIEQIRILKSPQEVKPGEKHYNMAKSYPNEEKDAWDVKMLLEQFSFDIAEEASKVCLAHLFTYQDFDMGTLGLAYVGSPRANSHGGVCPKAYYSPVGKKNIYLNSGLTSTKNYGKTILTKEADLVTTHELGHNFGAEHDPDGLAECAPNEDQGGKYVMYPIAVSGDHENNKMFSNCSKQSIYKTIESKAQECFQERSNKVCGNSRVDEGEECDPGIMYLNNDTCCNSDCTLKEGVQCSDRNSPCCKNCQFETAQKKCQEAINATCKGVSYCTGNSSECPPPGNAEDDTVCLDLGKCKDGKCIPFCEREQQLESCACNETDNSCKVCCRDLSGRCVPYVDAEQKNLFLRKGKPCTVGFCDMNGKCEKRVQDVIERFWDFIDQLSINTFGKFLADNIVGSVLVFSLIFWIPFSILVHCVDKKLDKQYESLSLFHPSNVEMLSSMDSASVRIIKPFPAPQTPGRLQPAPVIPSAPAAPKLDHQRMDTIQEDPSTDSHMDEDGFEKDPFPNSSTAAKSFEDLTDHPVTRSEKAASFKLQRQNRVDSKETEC
Sequence of fMet-Leu-Phe receptor (P21462 whole entry): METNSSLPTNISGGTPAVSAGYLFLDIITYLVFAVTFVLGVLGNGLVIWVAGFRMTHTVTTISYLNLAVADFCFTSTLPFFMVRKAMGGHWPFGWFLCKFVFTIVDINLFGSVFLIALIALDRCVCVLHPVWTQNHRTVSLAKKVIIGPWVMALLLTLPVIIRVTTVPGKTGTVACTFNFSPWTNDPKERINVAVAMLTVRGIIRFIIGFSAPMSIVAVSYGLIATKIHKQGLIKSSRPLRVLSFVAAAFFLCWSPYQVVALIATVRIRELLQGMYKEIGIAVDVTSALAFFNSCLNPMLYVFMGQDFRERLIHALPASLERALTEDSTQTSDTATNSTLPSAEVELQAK
Sequence of Genome polyprotein (P29990 2492-3391 limits assumed): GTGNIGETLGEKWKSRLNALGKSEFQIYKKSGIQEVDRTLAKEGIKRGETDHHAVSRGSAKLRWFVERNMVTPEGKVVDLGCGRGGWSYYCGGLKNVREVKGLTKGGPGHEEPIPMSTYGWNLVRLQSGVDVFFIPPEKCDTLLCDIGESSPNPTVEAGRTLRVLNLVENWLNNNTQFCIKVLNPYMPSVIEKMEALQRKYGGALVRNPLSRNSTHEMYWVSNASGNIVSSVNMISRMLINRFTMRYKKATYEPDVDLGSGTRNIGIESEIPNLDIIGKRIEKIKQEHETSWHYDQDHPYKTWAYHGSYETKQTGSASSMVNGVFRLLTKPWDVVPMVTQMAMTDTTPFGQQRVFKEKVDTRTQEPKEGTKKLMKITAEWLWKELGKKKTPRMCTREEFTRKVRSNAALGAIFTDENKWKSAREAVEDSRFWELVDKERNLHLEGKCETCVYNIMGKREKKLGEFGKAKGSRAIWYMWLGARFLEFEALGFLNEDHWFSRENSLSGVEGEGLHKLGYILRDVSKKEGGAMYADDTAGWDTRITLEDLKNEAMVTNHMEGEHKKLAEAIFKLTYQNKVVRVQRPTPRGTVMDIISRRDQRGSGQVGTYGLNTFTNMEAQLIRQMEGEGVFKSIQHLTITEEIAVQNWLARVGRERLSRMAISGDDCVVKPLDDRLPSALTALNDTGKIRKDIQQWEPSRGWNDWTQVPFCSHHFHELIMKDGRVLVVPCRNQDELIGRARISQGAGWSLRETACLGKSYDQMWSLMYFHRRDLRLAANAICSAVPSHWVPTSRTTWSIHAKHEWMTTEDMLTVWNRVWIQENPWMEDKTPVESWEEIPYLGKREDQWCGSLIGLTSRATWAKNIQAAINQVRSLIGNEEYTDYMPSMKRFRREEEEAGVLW

For `COc1cc(NC2CCCCC2O)c2nc(-c3ccc(Cl)cc3)ccc2c1` (stereo not given), the EC50 [1] was 9.15 µM (active), the EC50 [2] was 12.9 µM (active) and the EC50 (H4) was > 60 µM (not active). For the same molecule, the AC50 [3] was 2.07 µM (active), the EC50 (Protein RecA) was 0.0728 µM (active) and the AC50 (INS1) was 3.57 µM (active). The AC50 [4] was 20.3 µM (active), the AC50 [5] was 26.3 µM (active) and the AC50 [6] was > 52 µM (inactive).

In the case of `CCCCC(NC(=O)Cc1c(C)c2cc3c(-c4ccccc4)coc3c(C)c2oc1=O)C(=O)O` (stereo not given), the CC50 [7] is reported as > 50 µM (active), the IC50 (Genome polyprotein) is reported as 51 µM (active) and the AC50 (Caspase-6) is reported as 22 µM (active). The IC50 (cells) was 45.9 µM (active).

In the case of `Cc1ccc(N(CC(=O)NCCc2ccc(F)cc2)S(=O)(=O)c2ccc(Cl)c([N+](=O)[O-])c2)c(C)c1`, the EC50 [8] is reported as 14 µM (active), the EC50 [9] is reported as 8.87 µM (active) and the EC50 [10] is reported as 17.1 µM (active). For the same molecule, the IC50 (Vero [11]) was > 25 µM (active), the CC50 (Vero [12]) was 18.4 µM (active) and the IC50 [13] was > 69.5 µM (inactive). For the same molecule, the IC50 [14] was > 69.5 µM (inactive).

With `c1ccc(-n2nnnc2Sc2ncnc3sc4c(c23)CCCC4)cc1` the AC50 [5] was > 52 µM (inactive), the AC50 [15] was 5.02 µM (active) and the AC50 [16] was 5.73 µM (active). For the same molecule, the AC50 [6] was 42.3 µM (active).

In the case of `Clc1ccc(Nc2ccc3ccccc3n2)cc1`, the IC50 (Protein skinhead-1) is reported as > 100 µM (inactive) and the EC50 [17] is reported as > 67.5 µM (inactive).

With `CCOc1ccc(C2C(C(=O)c3cccs3)=C(O)C(=O)N2CCCn2ccnc2)cc1` (stereo not given) the Ki (fMet-Leu-Phe receptor) was 57.1 µM (inactive).

For `O=C(N/N=C/c1ccc([N+](=O)[O-])o1)C1CC1`, the EC50 [18] was 0.36 µM (active), the EC50 [19] was > 60 µM (not active) and the AC50 (Caspase-6) was 10 µM (active).
